This is an account of results in patent publication US20110195432A1, “METHODS FOR THE SELECTION OF THERAPEUTIC TREATMENTS FOR CANCER” (priority 2008, published 2011).

Each structure is given as a SMILES string.

The test system of data set [1] is HSP90 and AR. The protocol: (§1) LNCaP and VCaP cells were grown according to ATCC instructions. Sulforaphane (SFN, #S4441 Sigma, St. Louis, Mo.) was re-suspended in DMSO. Vehicle-treated cells received the respective vehicle controls Immunoprecipitations were carried out after treatment with sulforaphane (20 μM) or vehicle for 4 hours followed by a Western blot for HSP90 and AR. Enrichment was quantified for each immunoprecipitation. Inputs were probed with the indicated antibodies by Western blot and were quantified.
(§2) Immunoprecipitation and immunoblotting were performed as described (Qian et al., Clin. Cancer Res. 12:634-42, 2006). The following antibodies used in immunoblotting or immunoprecipitations (indicated dilutions are for immunoblotting): AR (1:1000, #06-680 Upstate, Billerica, Mass.); acetylated lysine (#05-515 Upstate, Billerica, Mass.); acetylated tubulin (1:2000, #T6793 Sigma, St. Louis, Mo.); alpha-tubulin (1:10,000, #T6074 Sigma, St. Louis, Mo.); beta-actin (1:5000, #A5441 Sigma, St. Louis, Mo.); ERG-1/2/3, (1:5000, #sc-354X Santa Cruz, Santa Cruz, Calif.); FLAG epitope (#F7425 Sigma, St. Louis, Mo.); GAPDH (1:5000, #sc-32233 Santa Cruz, Santa Cruz, Calif.); HDAC6 (1:1000, #sc-11420 Santa Cruz); HSP90 (1:1000, #SPA-840 Stressgen, Ann Arbor, Mich.); mouse IgG (#sc-2025 Santa Cruz, Santa Cruz, Calif.). The following secondary antibodies were used: ECL-conjugated anti-mouse IgG, (1:5000, #A6782 Sigma, St. Louis, Mo.); ECL-conjugated anti-rabbit IgG (1:3000, #NA934 Amersham, Piscataway, N.J. or 1:10,000, #sc-2004 Santa Cruz, Santa Cruz, Calif.). X-ray exposures were scanned as uncompressed images and bands were quantified by densitometry with Quantity One software (Bio-Rad, Hercules, Calif.). Intensity values were normalized to those of the endogenous controls. The vehicle sample was set to 1. Enrichment was calculated as: (intensity IP/intensity input)/(intensity IgG/intensity input) or intensity IP/input (FIG. 1B).

Data set [2] relates to HSP90. Particulars: sulforaphane 20 μM. As to the method: as §1, §2
The subject of data set [3] is PSA. As to the kind of experiment: Real-time PCR of AR target gene expression, LNCaP cells. The class given is cell-based. Particulars: increasing doses, vehicle set to 1. From the text:
(§3) All samples were run in triplicate. The vehicle-treated sample was set to 1.

In data set [4] the test system is PSA and TMPRSS2-ERG. To be noted: VCaP cells; 24 hours; increasing doses; vehicle set to 1.
Procedure: To determine the functional consequences of sulforaphane-mediated reduction in AR protein levels, real-time PCR was conducted for several AR target genes, including PSA and the TMPRSS2-ERG gene fusion present in VCaP cells (FIGS. 5A-C). Cells were lysed in Trizol (Invitrogen, Carlsbad, Calif.) and then purified with the RNAEasy Kit (Qiagen, Valencia, Calif.). One μg of RNA was reverse-transcribed using the Omniscript RT kit (Qiagen, Valencia, Calif.). Real-time PCR primer sequences and conditions were as follows.
The real-time PCR program consisted of: 50° C. for 2 minutes for 1 cycle; 95° C. for 10 minutes for 1 cycle; 95° C. for 15 seconds and 60° C. for 15 seconds for a total of 40 cycles. Standard curves were generated by measuring expression of target genes and 18S rRNA in serial dilutions of a mock-treated control. All samples were run in triplicate. The vehicle-treated sample was set to 1.
Data set [5] has as its system ERG. To be noted: VCaP cells; 20 μM sulforaphane, 24 hours; treated in parallel with ChIP. The protocol:
as §2, with “The vehicle sample was set to 1.” left out

The test system of data set [6] is AR. In words: Real-time PCR of AR gene expression, LNCaP cells. It is filed as cell-based.
Text: as §3
Background: Real-time PCR tracks product formation cycle by cycle.

Data set [7] concerns AR. As to the kind of experiment: Western blot of AR protein levels, LNCaP cells. The class given is cell-based. As to the method:
as §2
LNCaP cells were treated with sulforaphane in a dose-response (5 μM to 20 μM) and time-course (12 and 24 hours) manner to investigate the effect of HDAC6 inhibition on AR protein levels. Western blotting was performed as described in Example 1. […]

In data set [8] the test system is acetylated alpha-tubulin. As to the kind of experiment: Western blot of acetylated alpha-tubulin, LNCaP cells. It is filed as cell-based. The protocol: The vehicle sample was set to 1.
LNCaP cells were transiently transfected with either a siRNA sequence complementary to the luciferase gene ([…]; SEQ ID NO: 8) or to HDAC6 ([…]; SEQ ID NO: 9) using DharmaFECT 3 transfection reagent for a final concentration of 100 nM (Dharmacon, Lafayette, Colo.). At 48, 72, and 96 hours post-transfection, cells were harvested. Levels of protein expression by Western blot were quantified.
Background: Immunoblotting shows a protein as a band on a membrane.

Data set [9] has as its system AR. As to the kind of experiment: Western blot of AR protein levels, LNCaP cells. It is filed as cell-based. The source holds these as a separate data set.
The subject of data set [10] is AR. In words: Real-time PCR of AR gene expression, VCaP cells. The class given is cell-based.
Text: as §3

Data set [11] has as its system HDAC6. Particulars: LNCaP cells; sulforaphane versus vehicle. The protocol:
as §3
LNCaP cells were transiently transfected with pCDNA3.1 empty vector (Invitrogen, Carlsbad, Calif.) or FLAG-tagged HDAC6 expression vector (Addgene, Cambridge, Mass.) using Lipofectamine LTX and Plus reagents (Invitrogen, Carlsbad, Calif.). Forty-eight hours later, media was replaced for a 16-hour treatment with […] sulforaphane or vehicle. Levels of FLAG, HDAC6, AR, acetylated alpha-tubulin, and actin were measured by Western blot.

Where [12] appears, read: 4 hour treatment, vehicle versus sulforaphane.
[13] abbreviates: FLAG-HDAC6 transfected LNCaP cells, sulforaphane-treated, versus empty-vector, sulforaphane-treated cells.
[14] abbreviates: empty-vector transfected LNCaP cells, 16-hour treatment with 15 nM sulforaphane versus vehicle.

Take `C[S+]([O-])CCCCN=C=S` (centres unmarked) [sulforaphane, 1-Isothiocyanato-4-methylsulfinylbutane]: in data set [1] (4 hour sulforaphane treatment, as opposed to vehicle), the “interaction between HSP90 and AR” value is given as “disrupted”. The “Levels of acetylation of the AR” value in data set [1] (setting [12]) is “similar”. Also, in data set [2] (LNCaP cells, four hours, versus vehicle-treated cells), the “enrichment of acetylated lysines on the HSP90 protein” value is “increased enrichment of acetylated lysines on the HSP90 protein”. For the same molecule, in data set [2] (4 hours, versus vehicle), the “levels of HSP90 in input whole cell lysate” value was “similar”. For the same molecule, the “AR target gene expression (PSA)” value in data set [3] is “dose-dependent reduction”. Moreover, the “AR target gene expression (PSA, TMPRSS2-ERG)” value in data set [4] is “dose-dependent reduction”. The “levels of ERG protein in whole cell lysates” value in data set [5] was “near absent levels”. Besides, in data set [6] (20 μM), the “AR transcript levels at highest dose” value is reported as “declined”. The AR transcripts entry in data set [6] (increasing doses of sulforaphane, or TSA, vehicle set to 1) is recorded as “not consistently suppressed”; in data set [10] (24 hours, increasing doses of sulforaphane, or TSA, vehicle set to 1), “not consistently suppressed”. Moreover, the “AR steady state level with simultaneous MG132 treatment” value in data set [7] (24 hours, sulforaphane 20 μM or 300 nM TSA with 10 μM MG132) is “restored the AR steady state level close to that seen in the vehicle-treated control”. Further, in [7] (24 hours, sulforaphane 20 μM or 300 nM TSA, versus vehicle-treated cells), the “AR protein in the absence of MG132” value was “dramatic reductions”. In addition, the “AR protein levels at 24 hours” value in [7] (sulforaphane 15 μM and 20 μM, TSA) is given as “persisted”. Moreover, the “alpha-tubulin acetylation in HDAC6-over-expressing cells” value in data set [8] (setting [13]) is “blunted”. Moreover, the acetylated tubulin entry in [8] (setting [14]) was “increased”. In addition, in data set [8] (sulforaphane 20 μM, 4 hours, versus vehicle), the “levels of acetylated tubulin in input whole cell lysate” value is recorded as “increased levels of acetylated alpha-tubulin”. Further, the “levels of AR in input whole cell lysate” value in data set [9] (setting [12]) is given as “similar”. Moreover, in [9] (setting [13]), the “AR protein depletion in HDAC6-over-expressing cells” value is “attenuated”. The AR protein levels entry in data set [9] (LNCaP cells, 12 hours, highest doses tested (10-20 μM)) is recorded as “decreased”. Also, the “onset of AR protein decline” value in data set [9] (after sulforaphane treatment) is 6 to 12 h. Further, the AR protein entry in data set [9] (setting [14]) is on record as “decreased”. The “AR transcript levels at highest doses” value in [10] (15-20 μM) was “declined”. Also, the HDAC6 transcript levels entry in [11] is “reduce HDAC6 transcript levels”.
